Results: publication PMC9706563, “Development of Macrocyclic PRMT5–Adaptor Protein Interaction Inhibitors” (Journal of Medicinal Chemistry, 2022)
Read-outs that look alike come from different tables or passages of the source. Square brackets hold non-standard residues; d marks the D form. Peptide text beside a SMILES is read from it. * marks the point of attachment. FITC = O=C1OC2(c3ccc(O)cc3Oc3cc(O)ccc32)c2ccc(NC(=S)*)cc21; Bpa = N[C@@H](Cc1ccc(C(=O)c2ccccc2)cc1)C(=O)O; 1Nal = N[C@@H](Cc1cccc2ccccc12)C(=O)O; 2Nal = N[C@@H](Cc1ccc2ccccc2c1)C(=O)O; Gla = N[C@@H](CC(C(=O)O)C(=O)O)C(=O)O; hPhe = N[C@@H](CCc1ccccc1)C(=O)O; Cha = N[C@@H](CC1CCCCC1)C(=O)O; Nle = CCCC[C@H](N)C(=O)O; Nva = CCC[C@H](N)C(=O)O; Abu = CC[C@H](N)C(=O)O

Columns and labels:
PRMT5-MEP50 + pICln = target: T1, PRMT5-MEP50 + pICln (Homo sapiens, UniProt O14744); experiment: Competitive FP assay with Alexa 488-labeled full-length human pICln; format: binding
T1 construct: made in house
Method: To a solution of the full-length pICln protein (ca. 1 mg/mL) in 0.2 M bicarbonate buffer with 1 mM TCEP at pH 8.3 was added 10 mM Alexa […] in DMSO (8 equiv). The solution was kept on ice under dark conditions overnight. The protein was washed 8–10 times with a buffer intended for the fluorescence polarization assay (50 mM HEPES, 250 mM NaCl, 1 mM TCEP, 8.0 pH) using an Amicon Ultra-0.5 mL spin filter (Merck, Germany). Protein concentration was determined using the NanoDrop spectrophotometer.
The competitive binding assay was performed in a buffer of 50 mM HEPES, 250 mM NaCl, 1 mM TCEP, and 0.01% (v/v) Tween 20, 8.0 pH, in black, 384-well plates with a total volume of 10 μL per well. […] The plates were incubated at room temperature for up to 1 h 45 min and analyzed on a plate reader using 485 nm excitation and 535 nm emission wavelength. The experiment was performed in triplicate.

PRMT5-MEP50 [1] = target: T2, PRMT5-MEP50 (Homo sapiens, UniProt O14744); experiment: Competitive binding FP assay, FITC-labeled 50 as tracer; conditions: from competitive FP with tracer 50
T2 construct: The compounds were tested by means of FP with the full-length PRMT5-MEP50 complex; made in house
Method: The competitive binding assay was performed in a buffer of 50 mM HEPES, 250 mM NaCl, 1 mM TCEP, and 0.01% (v/v) Tween 20, 8.0 pH, in black, 384-well plates with a total volume of 10 μL per well. The FITC-labeled peptides or the Alexa 488-labeled pICln protein, at a final concentration of 1 nM, were mixed with PRMT5-MEP50 (at a final concentration of 194 nM when used with peptide 50, 600 nM with compound S1 [see Table S3] and 21, and 27 nM in the case of Alexa 488-labeled pICln), and the appropriate nonlabeled peptide or protein was titrated as two-fold dilution series. The plates were incubated at room temperature for up to 1 h 45 min and analyzed on a plate reader using 485 nm excitation and 535 nm emission wavelength. The experiment was performed in triplicate.

TIM-MEP50 complex = target: T3, TIM-MEP50 complex (Homo sapiens, UniProt O14744); experiment: Thermal shift assay (TSA); format: binding
T3 construct: made in house
Method: Thermal Shift Assays of peptides on the TIM-MEP50 complex were carried out in a 96-well PCR plate (LightCycler 480 Multiwell Plates 96, white, 04729692001). The purified protein complex was appropriately diluted in a buffer containing 50 mM HEPES (pH = 8.0), 250 mM NaCl, and 1 mM TCEP. All assay experiments used 5.36 μg of protein per well and […] 5000X Sypro Orange (Invitrogen) up to a total volume of 25 μL, with a resultant protein concentration of 3 μM and 5X SYPRO. Peptides were supplied at 10 mM concentration in DMSO. The PCR plates were sealed with an optical seal (LightCycler 480 Sealing Foil, 04729757001), shaken, and centrifuged after protein and compounds were added. Thermal scanning (25–95 °C at 1 °C/min) was performed using a real-time PCR setup (LightCycler 480 – Roche), and fluorescence intensity was measured after every temperature increment step. Analysis of the raw data was performed using internally developed software. Statistical validation of Tm shift relevance was performed using the Student’s t test (n = 6).

PRMT5-MEP50 [2] = target: T2, PRMT5-MEP50; experiment: Direct binding fluorescence polarization (FP) assay of FITC-labeled peptides; conditions: supplementary CSV
Method: The assay was performed in a buffer of 50 mM 4-(2-hydroxyethyl)-1-piperazineethanesulfonic acid (HEPES), 250 mM NaCl, 1 mM tris(2-carboxyethyl)phosphine (TCEP), and 0.01% (v/v) Tween 20, pH 8.0, in black, 384-well plates with a total volume of 10 μL per well. […] The plates were incubated at room temperature for 1 to 2 h and analyzed on a plate reader using 485 nm excitation and 535 nm emission wavelength. The assay was performed in triplicate.

[3] = Stability assay in cell lysate; format: in vitro ADME
Method: To the whole cell lysate prepared from U2OS cells with the freeze–thaw method was added the appropriate peptide, resulting in a mixture of 0.5 mg/mL protein and 600 μM peptide in PBS, and incubated at 37 °C. The samples were taken at 0, 15, 30 min, 1, 2, 4 h, 1, 3, and 7-days time points and mixed with an equal volume of ice-cold ethylparaben solution in MeOH (0.1 mg/mL), used as the internal standard. The samples were kept on ice for 15 min and centrifuged at 16,873 × g at 4 °C for 5 min. The obtained supernatant was then analyzed by HPLC, the peptide and the internal standard peaks at 210 nm were integrated, and the ratio of the peptide peak surface area to the internal standard was calculated. The experiment was conducted in duplicate.

T2 sequence (O14744 whole entry): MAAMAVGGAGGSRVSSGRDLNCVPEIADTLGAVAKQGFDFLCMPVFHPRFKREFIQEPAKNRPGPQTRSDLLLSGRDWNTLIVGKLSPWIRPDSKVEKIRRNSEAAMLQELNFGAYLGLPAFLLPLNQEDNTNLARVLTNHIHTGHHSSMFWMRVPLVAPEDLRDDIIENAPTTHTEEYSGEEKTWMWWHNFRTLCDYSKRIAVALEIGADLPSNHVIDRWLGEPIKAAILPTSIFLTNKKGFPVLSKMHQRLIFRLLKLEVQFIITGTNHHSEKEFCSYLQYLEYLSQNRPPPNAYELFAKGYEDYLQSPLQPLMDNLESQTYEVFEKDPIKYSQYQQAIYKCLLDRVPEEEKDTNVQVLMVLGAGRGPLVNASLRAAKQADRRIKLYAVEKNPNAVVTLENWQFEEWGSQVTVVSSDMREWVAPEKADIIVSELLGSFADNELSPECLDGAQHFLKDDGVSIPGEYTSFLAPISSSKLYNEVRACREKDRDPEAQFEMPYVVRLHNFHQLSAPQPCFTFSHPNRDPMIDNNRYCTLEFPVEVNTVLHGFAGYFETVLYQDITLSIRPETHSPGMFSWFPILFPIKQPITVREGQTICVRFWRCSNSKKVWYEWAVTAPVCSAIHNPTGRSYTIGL
T2 sequence (Q9BQA1 whole entry partner): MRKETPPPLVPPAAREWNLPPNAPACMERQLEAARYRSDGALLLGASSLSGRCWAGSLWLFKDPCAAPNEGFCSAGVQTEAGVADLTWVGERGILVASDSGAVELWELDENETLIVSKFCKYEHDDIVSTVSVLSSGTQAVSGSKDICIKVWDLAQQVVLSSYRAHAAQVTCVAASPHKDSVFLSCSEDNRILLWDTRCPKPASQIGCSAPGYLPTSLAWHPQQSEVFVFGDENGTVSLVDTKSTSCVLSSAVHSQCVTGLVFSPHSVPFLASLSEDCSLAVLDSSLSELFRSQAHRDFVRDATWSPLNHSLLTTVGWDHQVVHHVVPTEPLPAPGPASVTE
T1 sequence (O14744 whole entry): as the sequence (O14744 whole entry) above
T1 sequence (Q9BQA1 whole entry partner): as the sequence (Q9BQA1 whole entry partner) above
T3 sequence (O14744 13-292 limits assumed): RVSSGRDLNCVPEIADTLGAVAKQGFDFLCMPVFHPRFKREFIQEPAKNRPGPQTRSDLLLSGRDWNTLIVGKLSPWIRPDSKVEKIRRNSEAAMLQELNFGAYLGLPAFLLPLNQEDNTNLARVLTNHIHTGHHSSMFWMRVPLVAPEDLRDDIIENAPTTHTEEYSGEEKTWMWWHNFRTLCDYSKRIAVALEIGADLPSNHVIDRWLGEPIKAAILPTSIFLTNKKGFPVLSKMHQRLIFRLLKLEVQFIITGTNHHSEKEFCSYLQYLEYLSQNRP
T3 sequence (Q9BQA1 whole entry partner): as the sequence (Q9BQA1 whole entry partner) above

Row | Kd (PRMT5-MEP50 [2]; read-out: PRMT5-MEP50 Kd) [µM] | Compound | also measured
1 | > 1 | CC[C@H](NC(=O)[C@H](CC(=O)O)NC(=O)[C@H](CC(=O)O)NC(=O)[C@H](Cc1ccccc1)NC(=O)[C@H](CCC(N)=O)NC(=O)CNC(=O)[C@@H]1CCCN1C(=O)[C@@H](NC(C)=O)C(C)C)C(=O)N[C@@H](CC(=O)O)C(=O)N[C@@H](CCCCNC(=S)Nc1ccc2c(c1)C(=O)OC21c2ccc(O)cc2Oc2cc(O)ccc21)C(N)=O [Compound S27] (Ac-VPGQFDD[Abu]DK(FITC)-NH2) | 
2 | > 1 | CCC[C@H](NC(=O)[C@H](CC(=O)O)NC(=O)[C@H](CC(=O)O)NC(=O)[C@H](Cc1ccccc1)NC(=O)[C@H](CCC(N)=O)NC(=O)CNC(=O)[C@@H]1CCCN1C(=O)[C@@H](NC(C)=O)C(C)C)C(=O)N[C@@H](CC(=O)O)C(=O)N[C@@H](CCCCNC(=S)Nc1ccc2c(c1)C(=O)OC21c2ccc(O)cc2Oc2cc(O)ccc21)C(N)=O [Compound S28] (Ac-VPGQFDD[Nva]DK(FITC)-NH2) | 
3 | > 1 | CCCC[C@H](NC(=O)[C@H](CC(=O)O)NC(=O)[C@H](CC(=O)O)NC(=O)[C@H](Cc1ccccc1)NC(=O)[C@H](CCC(N)=O)NC(=O)CNC(=O)[C@@H]1CCCN1C(=O)[C@@H](NC(C)=O)C(C)C)C(=O)N[C@@H](CC(=O)O)C(=O)N[C@@H](CCCCNC(=S)Nc1ccc2c(c1)C(=O)OC21c2ccc(O)cc2Oc2cc(O)ccc21)C(N)=O [Compound S29] (Ac-VPGQFDD[Nle]DK(FITC)-NH2) | 
4 | > 1 | CC(=O)N[C@H](C(=O)N1CCC[C@H]1C(=O)NCC(=O)N[C@@H](CCC(N)=O)C(=O)N[C@@H](Cc1ccccc1)C(=O)N[C@@H](CC(=O)O)C(=O)N[C@@H](CC(=O)O)C(=O)N[C@@H](CC1CCCCC1)C(=O)N[C@@H](CC(=O)O)C(=O)N[C@@H](CCCCNC(=S)Nc1ccc2c(c1)C(=O)OC21c2ccc(O)cc2Oc2cc(O)ccc21)C(N)=O)C(C)C [Compound S30] (Ac-VPGQFDD[Cha]DK(FITC)-NH2) | 
5 | > 1 | CC(=O)N[C@H](C(=O)N1CCC[C@H]1C(=O)NCC(=O)N[C@@H](CCC(N)=O)C(=O)N[C@@H](Cc1ccccc1)C(=O)N[C@@H](CC(=O)O)C(=O)N[C@@H](CC(=O)O)C(=O)N[C@@H](CO)C(=O)N[C@@H](CC(=O)O)C(=O)N[C@@H](CCCCNC(=S)Nc1ccc2c(c1)C(=O)OC21c2ccc(O)cc2Oc2cc(O)ccc21)C(N)=O)C(C)C [Compound S31] (Ac-VPGQFDDSDK(FITC)-NH2) | 
6 | > 1 | CC(=O)N[C@H](C(=O)N1CCC[C@H]1C(=O)NCC(=O)N[C@@H](CCC(N)=O)C(=O)N[C@@H](Cc1ccccc1)C(=O)N[C@@H](CC(=O)O)C(=O)N[C@@H](CC(=O)O)C(=O)N[C@@H](C)C(=O)N[C@@H](Cc1ccc(O)cc1)C(=O)N[C@@H](CCCCNC(=S)Nc1ccc2c(c1)C(=O)OC21c2ccc(O)cc2Oc2cc(O)ccc21)C(N)=O)C(C)C [Compound S32] (Ac-VPGQFDDAYK(FITC)-NH2) | 
7 | > 1 | CC(=O)N[C@H](C(=O)N1CCC[C@H]1C(=O)NCC(=O)N[C@@H](CCC(N)=O)C(=O)N[C@@H](Cc1ccccc1)C(=O)N[C@@H](CC(=O)O)C(=O)N[C@@H](CC(=O)O)C(=O)N[C@@H](C)C(=O)N[C@@H](Cc1c[nH]c2ccccc12)C(=O)N[C@@H](CCCCNC(=S)Nc1ccc2c(c1)C(=O)OC21c2ccc(O)cc2Oc2cc(O)ccc21)C(N)=O)C(C)C [Compound S33] (Ac-VPGQFDDAWK(FITC)-NH2) | 
8 | > 1 | CC(=O)N[C@H](C(=O)N1CCC[C@H]1C(=O)NCC(=O)N[C@@H](CCC(N)=O)C(=O)N[C@@H](Cc1ccccc1)C(=O)N[C@@H](CC(=O)O)C(=O)N[C@@H](CC(=O)O)C(=O)N[C@@H](C)C(=O)N[C@@H](CCc1ccccc1)C(=O)N[C@@H](CCCCNC(=S)Nc1ccc2c(c1)C(=O)OC21c2ccc(O)cc2Oc2cc(O)ccc21)C(N)=O)C(C)C [Compound S34] (Ac-VPGQFDDA[hPhe]K(FITC)-NH2) | 

The next lines start with the compound.

Row | Compound | Kd (PRMT5-MEP50 [2]; read-out: PRMT5-MEP50 Kd) [µM] | also measured
9 | CC(=O)N1CCC[C@H]1C(=O)N[C@H](C(=O)N[C@@H]1CCCCC[C@@H](C(=O)N[C@@H](Cc2ccc([N+](=O)[O-])cc2)C(=O)N[C@@H](CC(C(=O)O)C(=O)O)C(=O)N[C@@H](CCC(N)=O)C(N)=O)NC(=O)[C@H](CC(=O)O)NC(=O)[C@H](C)NC1=O)C(C)C [Compound 54] |  | IC50 (PRMT5-MEP50 + pICln; competition with Alexa 488-labeled pICln, 27 nM PRMT5-MEP50): did not compete; PRMT5-MEP50 + pICln IC50 (µM) (PRMT5-MEP50 + pICln; competition with labeled pICln, supplementary CSV): nb; Ki (PRMT5-MEP50 [1]): n.b.; PRMT5-MEP50 Ki (µM) (PRMT5-MEP50 [1]; supplementary CSV): nb; increase of the average melting temperature (TIM-MEP50 complex; TSA, PRMT5 TIM barrel-MEP50 complex, n = 6): No stabilization; TSA Average Tm (°C) (TIM-MEP50 complex; supplementary CSV): 49.32 ± 0.18 °C
10 | CC(=O)N[C@H](C(=O)N1CCC[C@H]1C(=O)NCC(=O)N[C@@H](CCC(N)=O)C(=O)N[C@@H](Cc1ccc(C(=O)c2ccccc2)cc1)C(=O)N[C@@H](CC(=O)O)C(=O)N[C@@H](CC(=O)O)C(=O)N[C@@H](C)C(=O)N[C@@H](CC(=O)O)C(=O)N[C@@H](CCCCNC(=S)Nc1ccc2c(c1)C(=O)OC21c2ccc(O)cc2Oc2cc(O)ccc21)C(N)=O)C(C)C [Compound S23] (Ac-VPGQ[Bpa]DDADK(FITC)-NH2) |  | Kd (PRMT5-MEP50 [2]; PRMT5-MEP50 Kd (µM)): 0.752 ± 0.044 µM
11 | CC(=O)N[C@H](C(=O)N1CCC[C@H]1C(=O)NCC(=O)N[C@@H](CCC(N)=O)C(=O)N[C@@H](Cc1ccc2ccccc2c1)C(=O)N[C@@H](CC(=O)O)C(=O)N[C@@H](CC(=O)O)C(=O)N[C@@H](C)C(=O)N[C@@H](CC(=O)O)C(=O)N[C@@H](CCCCNC(=S)Nc1ccc2c(c1)C(=O)OC21c2ccc(O)cc2Oc2cc(O)ccc21)C(N)=O)C(C)C [Compound S24] (Ac-VPGQ[2Nal]DDADK(FITC)-NH2) | > 1 | 
12 | CC(=O)N[C@H](C(=O)N1CCC[C@H]1C(=O)NCC(=O)N[C@@H](CCC(N)=O)C(=O)N[C@@H](Cc1cccc2ccccc12)C(=O)N[C@@H](CC(=O)O)C(=O)N[C@@H](CC(=O)O)C(=O)N[C@@H](C)C(=O)N[C@@H](CC(=O)O)C(=O)N[C@@H](CCCCNC(=S)Nc1ccc2c(c1)C(=O)OC21c2ccc(O)cc2Oc2cc(O)ccc21)C(N)=O)C(C)C [Compound S25] (Ac-VPGQ[1Nal]DDADK(FITC)-NH2) | > 1 | 
13 | CC(=O)N[C@H](C(=O)N1CCC[C@H]1C(=O)NCC(=O)N[C@@H](CCC(N)=O)C(=O)N[C@@H](Cc1ccccc1)C(=O)N[C@@H](CC(=O)O)C(=O)N[C@@H](CC(C(=O)O)C(=O)O)C(=O)N[C@@H](C)C(=O)N[C@@H](CC(=O)O)C(=O)N[C@@H](CCCCNC(=S)Nc1ccc2c(c1)C(=O)OC21c2ccc(O)cc2Oc2cc(O)ccc21)C(N)=O)C(C)C [Compound S26] (Ac-VPGQFD[Gla]ADK(FITC)-NH2) | > 1 | 
14 | Ac-VPGQFDDAD-NH2 [Compound 31] |  | half-life ([3]; U2OS cell lysate, 37 °C, 600 μM peptide): 4.4 h; half-life ([3]; cells or culture medium, supplementary CSV, read-out: Half-llife in Lysate (converted)): 4.32 h
